In ChEMBL document CHEMBL1201862, “PubChem BioAssay data set” (2004):
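Interpolation was linear, between the two tested concentrations surrounding the appropriate level; five concentrations were tested over 48 hours in 96-well plates. At the GI50, growth is halved.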 The source made the active and inactive calls. No stated cut-off is given here; in the data, active = GI50 up to about 1.1 µM and inactive = higher.

Experiments:
Experiment in all cases: DTP human tumour cell line panel, 48 h
A498 = test system: A498
ACHN = test system: ACHN
CCRF-CEM = test system: CCRF-CEM
HCT-116 = test system: HCT-116
K562 = test system: K562
KM12 = test system: KM12
MDA-MB-231 = test system: MDA-MB-231
Malme-3M = test system: Malme-3M
NCI-H226 = test system: NCI-H226
NCI-H23 = test system: NCI-H23
NCI/ADR-RES = test system: NCI/ADR-RES
OVCAR-3 = test system: OVCAR-3
RXF 393 = test system: RXF 393
SK-MEL-2 = test system: SK-MEL-2
SN12C = test system: SN12C
SW-620 = test system: SW-620
UO-31 = test system: UO-31
HCC 2998 = test system: HCC 2998

| Compound | GI50 (A498) | GI50 (ACHN) | GI50 (CCRF-CEM) | GI50 (HCT-116) | GI50 (K562) | GI50 (KM12) | GI50 (MDA-MB-231) | GI50 (Malme-3M) | GI50 (NCI-H226) | GI50 (NCI-H23) | GI50 (NCI/ADR-RES) | GI50 (OVCAR-3) | GI50 (RXF 393) | GI50 (SK-MEL-2) | GI50 (SN12C) | GI50 (SW-620) | GI50 (UO-31) | GI50 (HCC 2998) |
| --- | --- | --- | --- | --- | --- | --- | --- | --- | --- | --- | --- | --- | --- | --- | --- | --- | --- | --- |
| Cc1ccc2c3c1O[C@H]1c4nc5ccccc5cc4C[C@@]4(O)[C@@H](C2)N(CC2CC2)CC[C@]314 | 16.5 µM (inactive) | 10.4 µM (inactive) | 1.39 µM (inactive) | 4.54 µM (inactive) | 3.31 µM (inactive) | 11.1 µM (inactive) | 11.2 µM (inactive) | 14.5 µM (inactive) | 10.6 µM (inactive) | 20.6 µM (inactive) | 6.44 µM (inactive) | 11.6 µM (inactive) | 8 µM (inactive) | 18.5 µM (inactive) | 28.6 µM (inactive) | 4.29 µM (inactive) | 10.4 µM (inactive) |  |
| Cc1ccc2c(sc(-c3ccc4c(c3)sc(-c3ccc(N(C)C)cc3)[n+]4C)[n+]2C)c1S(=O)(=O)O.Cc1ccc2c(sc(-c3ccc4c(c3)sc(-c3ccc5c(c3)sc(-c3ccc(N(C)C)cc3)[n+]5C)[n+]4C)[n+]2C)c1S(=O)(=O)O | > 100 µM (inactive) | 62.7 µM (inactive) | 10 µM (inactive) | > 100 µM (inactive) | 35.5 µM (inactive) | 73.1 µM (inactive) | 22 µM (inactive) |  |  | > 100 µM (inactive) | > 100 µM (inactive) | > 100 µM (inactive) |  | > 100 µM (inactive) | > 100 µM (inactive) | > 100 µM (inactive) | > 100 µM (inactive) | > 100 µM (inactive) |
| Cc1cn([C@@H]2O[C@H](CO[Si](C)(C)C(C)(C)C)[C@]3(O[C@H]3C(=O)NN)[C@H]2O[Si](C)(C)C(C)(C)C)c(=O)[nH]c1=O | 16.9 µM (inactive) | 5.86 µM (inactive) | 2.42 µM (inactive) | 4.08 µM (inactive) | 2.75 µM (inactive) | 7.67 µM (inactive) | 3.57 µM (inactive) | 3.39 µM (inactive) | 12 µM (inactive) | 14.1 µM (inactive) | 15.6 µM (inactive) | 3.76 µM (inactive) |  | 6.37 µM (inactive) | 5.79 µM (inactive) | 5.73 µM (inactive) | 14.2 µM (inactive) | 3.13 µM (inactive) |
| C(=N\c1cc2cc(Sc3ccccc3)ccc2[nH]1)/c1ccccc1 | 1.83 µM (inactive) | > 12.5 µM (inactive) | > 12.5 µM (inactive) | > 12.5 µM (inactive) | 11 µM (inactive) | 0.0931 µM (active) |  | > 12.5 µM (inactive) |  | > 12.5 µM (inactive) | > 12.5 µM (inactive) | > 12.5 µM (inactive) | > 12.5 µM (inactive) |  | > 12.5 µM (inactive) | > 12.5 µM (inactive) |  | 6.41 µM (inactive) |
| O=C(/C=C/c1ccc([N+](=O)[O-])cc1)c1nc2ccccc2[nH]1 | 1.73 µM (inactive) | 74.3 µM (inactive) | 20 µM (inactive) | 1.88 µM (inactive) | 3.66 µM (inactive) | 29.9 µM (inactive) | 26.9 µM (inactive) | > 100 µM (inactive) | 1.05 µM (active) |  | > 48.2 µM (inactive) | 9.44 µM (inactive) | 40.8 µM (inactive) | > 77.8 µM (inactive) | > 100 µM (inactive) | 26.2 µM (inactive) | > 69.8 µM (inactive) |  |
| O=C(O)CC(Nc1ccccc1)C(=O)O (configuration not stated) | > 100 µM (inactive) | > 100 µM (inactive) | > 100 µM (inactive) | > 100 µM (inactive) | > 100 µM (inactive) | > 100 µM (inactive) | > 100 µM (inactive) | > 100 µM (inactive) | > 100 µM (inactive) | > 100 µM (inactive) | > 100 µM (inactive) | > 100 µM (inactive) | > 100 µM (inactive) | > 100 µM (inactive) | > 100 µM (inactive) | > 100 µM (inactive) | > 100 µM (inactive) |  |
| COc1ccc(NC2CC(C)N(C(=O)c3ccccc3)O2)cc1 (configuration not stated) |  | > 10 µM (inactive) | > 10 µM (inactive) | > 10 µM (inactive) | > 10 µM (inactive) |  | > 10 µM (inactive) | > 10 µM (inactive) |  | > 10 µM (inactive) | > 10 µM (inactive) | > 10 µM (inactive) | > 10 µM (inactive) | > 10 µM (inactive) | > 10 µM (inactive) | > 10 µM (inactive) | > 10 µM (inactive) | > 10 µM (inactive) |
| CC1=CC(=O)C(=CN2C(=O)/C(=C\c3cccnc3)NC2=S)C(=O)O1 |  | > 100 µM (inactive) |  | > 100 µM (inactive) |  | > 100 µM (inactive) | > 100 µM (inactive) |  | > 100 µM (inactive) | > 100 µM (inactive) | > 100 µM (inactive) | > 100 µM (inactive) |  | > 100 µM (inactive) | > 100 µM (inactive) | > 100 µM (inactive) | > 100 µM (inactive) | > 100 µM (inactive) |
| Oc1ccc2ccccc2c1/N=N/c1ccc(Cl)cc1 |  | > 100 µM (inactive) | > 100 µM (inactive) | 51.9 µM (inactive) | > 100 µM (inactive) | > 100 µM (inactive) | 26.9 µM (inactive) | > 100 µM (inactive) | > 100 µM (inactive) | > 100 µM (inactive) | > 100 µM (inactive) | > 100 µM (inactive) | > 100 µM (inactive) | > 100 µM (inactive) | > 100 µM (inactive) | > 100 µM (inactive) | > 100 µM (inactive) |  |
| C=CCOc1ccc(C(/N=N\c2ccc(Cl)cc2)=N/NC(=O)c2ccccc2)cc1OC | > 100 µM (inactive) | 89.1 µM (inactive) | 29.5 µM (inactive) | 64.4 µM (inactive) |  | 38.5 µM (inactive) | > 100 µM (inactive) | 51.3 µM (inactive) | 53.7 µM (inactive) | 60 µM (inactive) | 72.4 µM (inactive) | 62.7 µM (inactive) |  | > 100 µM (inactive) | 50.5 µM (inactive) | > 100 µM (inactive) | 54.8 µM (inactive) | 39 µM (inactive) |
| CC1(O)CC23CC(O)C4(O)C(CC(O)C4(C)C)C(C)(O)C2CCC1C3O (configuration not stated) | > 100 µM (inactive) | > 100 µM (inactive) | > 100 µM (inactive) | > 100 µM (inactive) | > 100 µM (inactive) | > 100 µM (inactive) | > 100 µM (inactive) | > 100 µM (inactive) | > 100 µM (inactive) | > 100 µM (inactive) | > 100 µM (inactive) |  |  | > 100 µM (inactive) | > 100 µM (inactive) | > 100 µM (inactive) | > 100 µM (inactive) | > 100 µM (inactive) |
| CC(C)(C)OC(=O)C1/C(=C/CO)CN1C(=O)OC(C)(C)C (configuration not stated) | > 100 µM (inactive) | > 100 µM (inactive) | 76.2 µM (inactive) | > 100 µM (inactive) | > 100 µM (inactive) |  |  | > 100 µM (inactive) |  | > 100 µM (inactive) | > 100 µM (inactive) | > 100 µM (inactive) |  | > 100 µM (inactive) | > 100 µM (inactive) | > 100 µM (inactive) | > 100 µM (inactive) | > 100 µM (inactive) |
| O=C1N(Cc2ccccc2)C2CSCC2N1Cc1ccccc1 (configuration not stated) |  | 49.2 µM (inactive) | 51.2 µM (inactive) | 36.4 µM (inactive) | 55.5 µM (inactive) | 23.8 µM (inactive) | 12.1 µM (inactive) | 13.5 µM (inactive) | 24.1 µM (inactive) | 27.8 µM (inactive) | 24.5 µM (inactive) | 10.4 µM (inactive) | 20.6 µM (inactive) | 16.7 µM (inactive) | 33.7 µM (inactive) | 36.2 µM (inactive) | 24 µM (inactive) | 26.5 µM (inactive) |
| Cn1c(NN)nc(-c2ccc([N+](=O)[O-])cc2)c(C#N)c1=O |  | 12.2 µM (inactive) | 25.4 µM (inactive) | 12.8 µM (inactive) | 38.2 µM (inactive) | 16.3 µM (inactive) | 12.7 µM (inactive) | 16.1 µM (inactive) | 11 µM (inactive) | 13.4 µM (inactive) | 31 µM (inactive) | 17.1 µM (inactive) | 14.9 µM (inactive) | 22.2 µM (inactive) | 15.6 µM (inactive) | 12.7 µM (inactive) | 16.3 µM (inactive) | 13.7 µM (inactive) |
| CC(NC(=O)OC(C)(C)C)C(=O)C(N)=O (configuration not stated) | > 100 µM (inactive) | > 100 µM (inactive) | > 100 µM (inactive) | > 100 µM (inactive) | > 100 µM (inactive) |  | > 100 µM (inactive) |  | > 100 µM (inactive) | > 100 µM (inactive) | > 100 µM (inactive) |  |  | > 100 µM (inactive) | > 100 µM (inactive) | > 100 µM (inactive) | > 100 µM (inactive) | > 100 µM (inactive) |
| COc1ccc(/C=C/C(=O)c2ccc(Br)cc2)cc1 | > 100 µM (inactive) | > 100 µM (inactive) | > 100 µM (inactive) | 80.4 µM (inactive) | > 100 µM (inactive) | > 100 µM (inactive) | > 100 µM (inactive) | > 100 µM (inactive) | > 100 µM (inactive) | 30.6 µM (inactive) | 52 µM (inactive) |  |  | > 100 µM (inactive) | > 100 µM (inactive) | > 100 µM (inactive) | 78.7 µM (inactive) | > 100 µM (inactive) |
| O=C(COc1cc(=O)oc2ccccc12)c1ccccc1 | 60.7 µM (inactive) | 19.8 µM (inactive) | 71.6 µM (inactive) | 17.9 µM (inactive) | > 100 µM (inactive) | 37.9 µM (inactive) | 83.8 µM (inactive) | > 100 µM (inactive) | 19.1 µM (inactive) | 25.2 µM (inactive) |  | 19.4 µM (inactive) | > 10 µM (inactive) | 30.7 µM (inactive) | > 100 µM (inactive) | 44.8 µM (inactive) | > 10 µM (inactive) | > 100 µM (inactive) |
